Results taken from patent US8802597B2, “Herbicidal pyrimidines” (E I du Pont de Nemours and Company, priority 2003, dated 2014).

What was measured:
Format in all cases: in vivo
[1] = test system: crabgrass (Digitaria sanguinalis); assay: Test A pre/postemergence
Outline: (§1)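 Compared with untreated controls, treated plants were visually rated for injury on a 0 (none) to 100 (complete control) scale about ten days after spraying. Pre- and postemergence applications used one solvent/surfactant formulation; postemergence plants measured 2–10 cm.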

[2] = test system: morningglory (Ipomoea spp.); assay: Test A pre/postemergence
Outline: as §1

[3] = test system: giant foxtail (Setaria faberi); assay: Test A pre/postemergence
Outline: as §1

[4] = test system: barnyardgrass (Echinochloa crus-galli); assay: Test A pre/postemergence
Outline: as §1

[5] = test system: redroot pigweed (Amaranthus retroflexus); assay: Test A pre/postemergence
Outline: as §1

[6] = test system: velvetleaf (Abutilon theophrasti); assay: Test A pre/postemergence
Outline: as §1

[7] = test system: transplanted rice seedlings (Oryza sativa cv. ‘Japonica-M202’); assay: Test E flooded paddy water application; settings: Flood, 21 days, scale 0 to 100 (0 no effect, 100 complete control)
Excerpt: (§2) Three plastic pots (ca. 16-cm diameter) per rate were partially filled with sterilized Tama silt loam soil comprising a 35:50:15 ratio of sand, silt and clay and 2.6% organic matter. Separate plantings for each of the three pots were as follows. Seeds from the U.S. of ducksalad (Heteranthera limosa), smallflower umbrella sedge (Cyperus difformis) and purple redstem (Ammannia coccinea), were planted into one 16-cm pot for each rate. Seeds from the U.S. of rice flatsedge (Cyperus iria), bearded (brdd.) sprangletop (Leptochloa fusca ssp. fascicularis), one stand of 9 or 10 water seeded rice seedlings (Oryza sativa cv. ‘Japonica-M202’), and one stand of 6 transplanted rice seedlings (Oryza sativa cv. ‘Japonica-M202’) were planted into one 16-cm pot for each rate. Seeds from the U.S. of barnyardgrass (Echinochloa crus-galli), late watergrass (Echinochloa oryzicola), early watergrass (Echinochloa oryzoides) and junglerice (Echinochloa colona) were planted into one 16-cm pot for each rate. Plantings were sequential so that crop and weed species were at the 2.0 to 2.5-leaf stage at time of treatment.
(§3) Potted plants were grown in a greenhouse with day/night temperature settings of 29.5/26.7° C., and supplemental balanced lighting was provided to maintain a 16-hour photoperiod. Test pots were maintained in the greenhouse until test completion.
(§4) At time of treatment, test pots were flooded to 3 cm above the soil surface, treated by application of test compounds directly to the paddy water, and then maintained at that water depth for the duration of the test. Effects of treatments on rice and weeds were visually evaluated by comparison to untreated controls after 21 days. Plant response ratings, summarized in Table E, are based on a scale of 0 to 100 where 0 is no effect and 100 is complete control. A dash (-) response means no test result.

[8] = test system: purple redstem (Ammannia coccinea); assay: Test E flooded paddy water application; settings: Flood, 21 days, scale 0 to 100 (0 no effect, 100 complete control)
Excerpt: as §2, §3, §4

[9] = test system: late watergrass (Echinochloa oryzicola); assay: Test E flooded paddy water application; settings: Flood, 21 days, scale 0 to 100 (0 no effect, 100 complete control)
Excerpt: as §2, §3, §4

[10] = test system: water seeded rice seedlings (Oryza sativa cv. ‘Japonica-M202’); assay: Test E flooded paddy water application; settings: Flood, 21 days, scale 0 to 100 (0 no effect, 100 complete control)
Excerpt: as §2, §3, §4

[11] = test system: smallflower umbrella sedge (Cyperus difformis); assay: Test E flooded paddy water application; settings: Flood, 21 days, scale 0 to 100 (0 no effect, 100 complete control)
Excerpt: as §2, §3, §4

[12] = test system: bearded (brdd.) sprangletop (Leptochloa fusca ssp. fascicularis); assay: Test E flooded paddy water application; settings: Flood, 21 days, scale 0 to 100 (0 no effect, 100 complete control)
Excerpt: as §2, §3, §4

[13] = test system: early watergrass (Echinochloa oryzoides); assay: Test E flooded paddy water application; settings: Flood, 21 days, scale 0 to 100 (0 no effect, 100 complete control)
Excerpt: as §2, §3, §4

[14] = test system: ducksalad (Heteranthera limosa); assay: Test E flooded paddy water application; settings: Flood, 21 days, scale 0 to 100 (0 no effect, 100 complete control)
Excerpt: as §2, §3, §4

[15] = test system: rice flatsedge (Cyperus iria); assay: Test E flooded paddy water application; settings: Flood, 21 days, scale 0 to 100 (0 no effect, 100 complete control)
Excerpt: as §2, §3, §4

[16] = test system: junglerice (Echinochloa colona); assay: Test E flooded paddy water application; settings: Flood, 21 days, scale 0 to 100 (0 no effect, 100 complete control)
Excerpt: as §2, §3, §4

[17] = test system: barnyardgrass (Echinochloa crus-galli); assay: Test E flooded paddy water application; settings: Flood, 21 days, scale 0 to 100 (0 no effect, 100 complete control)
Excerpt: as §2, §3, §4

[18] = Postemergence, 125 g ai/ha, 0 to 100 scale (0 no effect, 100 complete control)
[19] = Postemergence, 500 g ai/ha, 0 to 100 scale (0 no effect, 100 complete control)
[20] = Preemergence, 125 g ai/ha, 0 to 100 scale where 0 is no effect and 100 is complete control, approximately ten days
[21] = Preemergence, 500 g ai/ha, 0 to 100 scale where 0 is no effect and 100 is complete control, approximately ten days

SMILES: CCOC(=O)c1nc(-c2ccc(Cl)cc2Cl)nc(N)c1Br [Compound 67]
- Plant response rating, Crabgrass [1, 18]: 5
- Plant response rating, Crabgrass [1, 19]: 5
- Plant response rating, Crabgrass [1, 20]: 0
- Plant response rating, Crabgrass [1, 21]: 30
- Plant response rating, Morningglory [2, 18]: 50
- Plant response rating, Morningglory [2, 19]: 60
- Plant response rating, Morningglory [2, 20]: 0
- Plant response rating, Morningglory [2, 21]: 0
- Plant response rating, Foxtail, Giant [3, 18]: 0
- Plant response rating, Foxtail, Giant [3, 19]: 0
- Plant response rating, Foxtail, Giant [3, 20]: 0
- Plant response rating, Foxtail, Giant [3, 21]: 30
- Plant response rating, Barnyardgrass [4, 18]: 0
- Plant response rating, Barnyardgrass [4, 19]: 0
- Plant response rating, Barnyardgrass [4, 20]: 0
- Plant response rating, Barnyardgrass [4, 21]: 0
- Plant response rating, Pigweed [5, 18]: 90
- Plant response rating, Pigweed [5, 19]: 90
- Plant response rating, Pigweed [5, 20]: 10
- Plant response rating, Pigweed [5, 21]: 75
- Plant response rating, Velvetleaf [6, 18]: 65
- Plant response rating, Velvetleaf [6, 19]: 75
- Plant response rating, Velvetleaf [6, 20]: 10
- Plant response rating, Velvetleaf [6, 21]: 40
- Rice, Transplanted plant response rating ([7]; 32 g ai/ha): 0
- Rice, Transplanted plant response rating ([7]; 64 g ai/ha): 0
- Rice, Transplanted plant response rating ([7]; 125 g ai/ha): 0
- Rice, Transplanted plant response rating ([7]; 250 g ai/ha): 0
- Plant response rating, Rice, Transplanted ([7]; 16 g ai/ha): 0
- Redstem plant response rating ([8]; 32 g ai/ha): 0
- Redstem plant response rating ([8]; 64 g ai/ha): 0
- Redstem plant response rating ([8]; 125 g ai/ha): 0
- Redstem plant response rating ([8]; 250 g ai/ha): 85
- Plant response rating, Redstem ([8]; 16 g ai/ha): 0
- Watergrass, Late plant response rating ([9]; 32 g ai/ha): 0
- Watergrass, Late plant response rating ([9]; 64 g ai/ha): 0
- Watergrass, Late plant response rating ([9]; 125 g ai/ha): 0
- Watergrass, Late plant response rating ([9]; 250 g ai/ha): 0
- Plant response rating, Watergrass, Late ([9]; 16 g ai/ha): 0
- Rice, Water Seeded plant response rating ([10]; 32 g ai/ha): 0
- Rice, Water Seeded plant response rating ([10]; 64 g ai/ha): 0
- Rice, Water Seeded plant response rating ([10]; 125 g ai/ha): 0
- Rice, Water Seeded plant response rating ([10]; 250 g ai/ha): 0
- Plant response rating, Rice, Water Seeded ([10]; 16 g ai/ha): 0
- Sedge, Umbrella plant response rating ([11]; 32 g ai/ha): 0
- Sedge, Umbrella plant response rating ([11]; 64 g ai/ha): 0
- Sedge, Umbrella plant response rating ([11]; 125 g ai/ha): 40
- Sedge, Umbrella plant response rating ([11]; 250 g ai/ha): 70
- Plant response rating, Sedge, Umbrella ([11]; 16 g ai/ha): 0
- Sprangletop, Brdd. plant response rating ([12]; 32 g ai/ha): 0
- Sprangletop, Brdd. plant response rating ([12]; 64 g ai/ha): 0
- Sprangletop, Brdd. plant response rating ([12]; 125 g ai/ha): 30
- Sprangletop, Brdd. plant response rating ([12]; 250 g ai/ha): 30
- Plant response rating, Sprangletop, Brdd. ([12]; 16 g ai/ha): 0
- Watergrass, Early plant response rating ([13]; 32 g ai/ha): 0
- Watergrass, Early plant response rating ([13]; 64 g ai/ha): 0
- Watergrass, Early plant response rating ([13]; 125 g ai/ha): 0
- Watergrass, Early plant response rating ([13]; 250 g ai/ha): 0
- Plant response rating, Watergrass, Early ([13]; 16 g ai/ha): 0
- Ducksalad plant response rating ([14]; 32 g ai/ha): 100
- Ducksalad plant response rating ([14]; 64 g ai/ha): 100
- Ducksalad plant response rating ([14]; 125 g ai/ha): 100
- Ducksalad plant response rating ([14]; 250 g ai/ha): 100
- Plant response rating, Ducksalad ([14]; 16 g ai/ha): 85
- Flatsedge, Rice plant response rating ([15]; 32 g ai/ha): 0
- Flatsedge, Rice plant response rating ([15]; 64 g ai/ha): 30
- Flatsedge, Rice plant response rating ([15]; 125 g ai/ha): 60
- Flatsedge, Rice plant response rating ([15]; 250 g ai/ha): 60
- Plant response rating, Flatsedge, Rice ([15]; 16 g ai/ha): 0
- Junglerice plant response rating ([16]; 32 g ai/ha): 0
- Junglerice plant response rating ([16]; 64 g ai/ha): 0
- Junglerice plant response rating ([16]; 125 g ai/ha): 30
- Junglerice plant response rating ([16]; 250 g ai/ha): 65
- Plant response rating, Junglerice ([16]; 16 g ai/ha): 0
- Barnyardgrass plant response rating ([17]; 32 g ai/ha): 0
- Barnyardgrass plant response rating ([17]; 64 g ai/ha): 0
- Barnyardgrass plant response rating ([17]; 125 g ai/ha): 40
- Barnyardgrass plant response rating ([17]; 250 g ai/ha): 40
- Plant response rating, Barnyardgrass ([17]; 16 g ai/ha): 0
